Data published in patent publication US20040235747A1, “Methods of treating and/or preventing autoimmune diseases” (Ramot At Tel-Aviv University Ltd., priority 2003, published 2004).

Tests used:
splenocytes = experiment: Proliferative T-cell response of splenocytes (thymidine incorporation) from MOG-induced EAE mice; format: cell-based, mouse
Excerpt: FIG. 2 illustrates the thymidine incorporation into splenocytes in a MOG-induced mouse model in the presence (filled circles) or absence (open circles) of NAP.
An additional experiment included proliferative T-cell response performed as described by Offen et al., supra.

MOG-induced EAE mice = experiment: MOG-induced chronic autoimmune encephalomyelitis (EAE), clinical score; format: in vivo, C57/b mice; details: NAP intranasal 0.1 microgram/mouse daily; day 11 on, P<0.01, t-test, vs control mixture without NAP (FIG. 1)

## Asn-Ala-Pro-Val-Ser-Ile-Pro-Gln [NAP]
splenocytes; MS model treated with NAP compared to untreated, P<0.01 (FIG. 2)
  proliferative response of splenocytes (cell proliferation, immune response): much reduced
splenocytes; splenocytes of NAP-treated animals, MOG up to 25 micrograms, untreated splenocytes showed increased proliferation even at 2 micrograms/well
  effect of added MOG on splenocyte proliferation: no effect
MOG-induced EAE mice
  clinical outcome (clinical manifestations of EAE, score 0-6): significantly improved the clinical outcome
